Assay results: patent publication US11679110B2, “Methods of treating disorders using CSF1R inhibitors” (Deciphera Pharmaceuticals, LLC, priority 2018, dated 2023)
Where two headings read alike, the source gives them in different places. Marks after values point to notes of the source that are not given here.

Test: Plasma pharmacokinetics of Compound 1 in patients with advanced solid tumor malignancies and TGCT
Format: in vivo, human
Conditions: for Cmax / AUC(0-t) / Tmax: human, plasma, oral; for Tmax: Median (Min, Max)
Experimental: PK analysis was conducted on all 38 patients. Serial blood samples were collected for PK and took place on either Day −7, Cycle 1, Day 1 (C1D1) and C2D1 at pre-dose, 0.5, 1, 2, 4, 6, 8, 10-12, and 24 hr time points or Day −7, C1D1, C1D8, and C2D1 at pre-dose, 1, 2, 4, 6, and 8 hr time points, or C1D1, C1D8, and C2D1 at pre-dose, 1, 2, 4, 6, and 8 hr time points. High fat meal was given prior to dosing of Compound 1 on Day −7. PD effects were measured by two methodologies: 1) depletion of CSF1R-expressing monocytes in peripheral blood (Cohorts 1-7) from C1D1, C1D15 and C2D1; and 2) increase of plasma levels of CSF1 and IL-34, the ligands for CSF1R (Cohorts 1-7) on C1D1, C1D15, and C2D1. For the CD16^+ monocyte assay, whole blood collected in an EDTA vacutainer was aliquoted into tubes and incubated with fluorescently-labeled antibodies (CD14-Alexa488 (BD Pharmingen); CD16-PE-Cy7 (BD Pharmingen); and TIE2-APC (R&D Systems). After incubation, red blood cells were lysed, and the remaining cells were washed several times before being analyzed on a flow cytometer. For the plasma CSF1 assay or IL-34, whole blood collected in an EDTA vacutainer was centrifuged, and the plasma was collected and frozen. Plasma levels of CSF1 or IL-34 were measured using a commercial ELISA kit (R&D Systems).
Cohort 1 had daily dosing.

Cc1nc(-c2cnc(NC(C)C)n(C)c2=O)ccc1Oc1ccnc(-c2cnn(C)c2)c1 [Compound 1, 2-(isopropylamino)-3-methyl-5-(6-methyl-5-((2-(1-methyl-1H-pyrazol-4-yl)pyridin-4-yl)oxy)pyridin-2-yl)pyrimidin-4(3H)-one]
Ctrough (Cohort 1 10 mg QD, C1D8, Geo Mean): 331 ng/mL
Ctrough (Cohort 1 10 mg QD, C2D1, Geo Mean): 447^c ng/mL
Ctrough (Cohort 2 10 mg QD x 5 d, BIW maintenance dose, C1D8, Geo Mean): 184 ng/mL
Ctrough (Cohort 2 10 mg QD x 5 d, BIW maintenance dose, C2D1, Geo Mean): 122 ng/mL
AUC0-8 (Cohort 2 10 mg Twice Weekly after 5-day QD loading dose, C2D1, GM (CV %)): 1030 (63) hr*ng/mL
Ctrough (Cohort 3 20 mg QD x 5 d, QW maintenance dose, C1D8, Geo Mean): 850 ng/mL
Ctrough (Cohort 3 20 mg QD x 5 d, QW maintenance dose, C2D1, Geo Mean): 205 ng/mL
AUC0-8 (Cohort 3 20 mg Weekly after 5-day QD loading dose, C2D1, GM (CV %)): 3380 ng·h/mL
Ctrough (Cohort 4 20 mg QD x 5 d, BIW maintenance dose, C1D8, Geo Mean): 483 ng/mL
Ctrough (Cohort 4 20 mg QD x 5 d, BIW maintenance dose, C2D1, Geo Mean): 441 ng/mL
AUC0-8 (Cohort 4 20 mg Twice Weekly after 5-day QD loading dose, C2D1, GM (CV %)): 4300 (2.82) hr*ng/mL
Ctrough (Cohort 5 30 mg QD x 5 d, BIW maintenance dose, C1D8, Geo Mean): 1020 ng/mL
Ctrough (Cohort 5 30 mg QD x 5 d, BIW maintenance dose, C2D1, Geo Mean): 574 ng/mL
AUC0-8 (Cohort 5 30 mg Twice Weekly after 5-day QD loading dose, C2D1, GM (CV %)): 4750 (53.2) hr*ng/mL
Ctrough (Cohort 6 30 mg QD x 5 d, BIW maintenance dose (so in the source), C2D1, Geo Mean): 570 ng/mL
AUC0-8 (Cohort 6 40 mg Twice Weekly after 5-day QD loading dose, C2D1, GM (CV %)): 7290 (28.1) hr*ng/mL
AUC0-8 (Cohort 7 20 mg QD after 3-day 50 mg QD loading dose, C2D1, GM (CV %)): 5580 (86.8) hr*ng/mL
Ctrough (Cohort 7 50 mg QD x 3 d, QD maintenance dose, C2D1, Geo Mean): 1040 ng/mL
Cmax (10 mg, Cohort 1 10 mg QD, C1D1, GM (CV %)): 155 ng/mL
AUC(0-t) (10 mg, Cohort 1 10 mg QD, C1D1, GM (CV %), read-out: AUC0-8): 770 ng·h/mL
Cmax (10 mg, Cohort 1 10 mg QD, C1D1, Geo Mean): 155 ng/mL
AUC(0-t) (10 mg, Cohort 1 10 mg QD, C1D1, Geo Mean, read-out: AUC0-8 h): 770 ng·h/mL
Tmax (10 mg, Cohort 1 10 mg QD, C1D1): 1 h
Cmax (10 mg, Cohort 1 10 mg QD, C2D1, GM (CV %)): 767 ng/mL
AUC(0-t) (10 mg, Cohort 1 10 mg QD, C2D1, GM (CV %), read-out: AUC0-8): 4510 ng·h/mL
Cmax (10 mg, Cohort 1 10 mg QD, C2D1, Geo Mean): 767 ng/mL
AUC(0-t) (10 mg, Cohort 1 10 mg QD, C2D1, Geo Mean, read-out: AUC0-8 h): 4470 ng·h/mL
Tmax (10 mg, Cohort 1 10 mg QD, C2D1): 0.5 h
Cmax (10 mg, Cohort 1 10 mg QD, Day -7, Geo Mean): 75.9 ng/mL
AUC(0-t) (10 mg, Cohort 1 10 mg QD, Day -7, Geo Mean, read-out: AUC0-8 h): 429 ng·h/mL
Cmax (10 mg, Cohort 1 10 mg QD, Day-7, GM (CV %)): 75.9 ng/mL
AUC(0-t) (10 mg, Cohort 1 10 mg QD, Day-7, GM (CV %), read-out: AUC0-8): 425 ng·h/mL
Cmax (10 mg, Cohort 2 10 mg QD x 5 d, BIW maintenance dose, C1D1, Geo Mean): 168 ng/mL
AUC(0-t) (10 mg, Cohort 2 10 mg QD x 5 d, BIW maintenance dose, C1D1, Geo Mean, read-out: AUC0-8 h): 1080 ng·h/mL
Cmax (10 mg, Cohort 2 10 mg QD x 5 d, BIW maintenance dose, C1D8, Geo Mean): 248 ng/mL
AUC(0-t) (10 mg, Cohort 2 10 mg QD x 5 d, BIW maintenance dose, C1D8, Geo Mean, read-out: AUC0-8 h): 1730 ng·h/mL
Cmax (10 mg, Cohort 2 10 mg QD x 5 d, BIW maintenance dose, C2D1, Geo Mean): 149 ng/mL
AUC(0-t) (10 mg, Cohort 2 10 mg QD x 5 d, BIW maintenance dose, C2D1, Geo Mean, read-out: AUC0-8 h): 1030 ng·h/mL
Cmax (10 mg, Cohort 2 10 mg QD x 5 d, BIW maintenance dose, Day -7, Geo Mean): 119 ng/mL
AUC(0-t) (10 mg, Cohort 2 10 mg QD x 5 d, BIW maintenance dose, Day -7, Geo Mean, read-out: AUC0-8 h): 781 ng·h/mL
Cmax (10 mg, Cohort 2 10 mg Twice Weekly after 5-day QD loading dose, C1D1, GM (CV %)): 94 ng/mL
AUC(0-t) (10 mg, Cohort 2 10 mg Twice Weekly after 5-day QD loading dose, C1D1, GM (CV %), read-out: AUC0-8): 467 ng·h/mL
Cmax (10 mg, Cohort 2 10 mg Twice Weekly after 5-day QD loading dose, C1D8, GM (CV %)): 248 ng/mL
AUC(0-t) (10 mg, Cohort 2 10 mg Twice Weekly after 5-day QD loading dose, C1D8, GM (CV %), read-out: AUC0-8): 1730 ng·h/mL
Tmax (10 mg, Cohort 2 10 mg Twice Weekly after 5-day QD loading dose, C1D8): 1 h
Cmax (10 mg, Cohort 2 10 mg Twice Weekly after 5-day QD loading dose, C2D1, GM (CV %)): 149 ng/mL
AUC(0-t) (10 mg, Cohort 2 10 mg Twice Weekly after 5-day QD loading dose, C2D1, GM (CV %), read-out: AUC0-8): 1030 ng·h/mL
Tmax (10 mg, Cohort 2 10 mg Twice Weekly after 5-day QD loading dose, C2D1): 1 h
Cmax (10 mg, Cohort 2 10 mg Twice Weekly after 5-day QD loading dose, Day-7, GM (CV %)): 80.2 ng/mL
AUC(0-t) (10 mg, Cohort 2 10 mg Twice Weekly after 5-day QD loading dose, Day-7, GM (CV %), read-out: AUC0-8): 353 ng·h/mL
Cmax (20 mg, Cohort 3 20 mg QD x 5 d, QW maintenance dose, C1D1, Geo Mean): 466 ng/mL
AUC(0-t) (20 mg, Cohort 3 20 mg QD x 5 d, QW maintenance dose, C1D1, Geo Mean, read-out: AUC0-8 h): 2510 ng·h/mL
Cmax (20 mg, Cohort 3 20 mg QD x 5 d, QW maintenance dose, C1D8, Geo Mean): 1160 ng/mL
AUC(0-t) (20 mg, Cohort 3 20 mg QD x 5 d, QW maintenance dose, C1D8, Geo Mean, read-out: AUC0-8 h): 7410 ng·h/mL
Cmax (20 mg, Cohort 3 20 mg QD x 5 d, QW maintenance dose, C2D1, Geo Mean): 530 ng/mL
AUC(0-t) (20 mg, Cohort 3 20 mg QD x 5 d, QW maintenance dose, C2D1, Geo Mean, read-out: AUC0-8 h): 3380 ng·h/mL
Cmax (20 mg, Cohort 3 20 mg QD x 5 d, QW maintenance dose, Day -7, Geo Mean): 242 ng/mL
AUC(0-t) (20 mg, Cohort 3 20 mg QD x 5 d, QW maintenance dose, Day -7, Geo Mean, read-out: AUC0-8 h): 1320 ng·h/mL
Cmax (20 mg, Cohort 3 20 mg Weekly after 5-day QD loading dose, C1D1, GM (CV %)): 466 ng/mL
AUC(0-t) (20 mg, Cohort 3 20 mg Weekly after 5-day QD loading dose, C1D1, GM (CV %), read-out: AUC0-8): 2510 ng·h/mL
Tmax (20 mg, Cohort 3 20 mg Weekly after 5-day QD loading dose, C1D1): 1 h
Cmax (20 mg, Cohort 3 20 mg Weekly after 5-day QD loading dose, C1D8, GM (CV %)): 1160 ng/mL
AUC(0-t) (20 mg, Cohort 3 20 mg Weekly after 5-day QD loading dose, C1D8, GM (CV %), read-out: AUC0-8): 7290 ng·h/mL
Tmax (20 mg, Cohort 3 20 mg Weekly after 5-day QD loading dose, C1D8): 1 h
Cmax (20 mg, Cohort 3 20 mg Weekly after 5-day QD loading dose, C2D1, GM (CV %)): 530 ng/mL
AUC(0-t) (20 mg, Cohort 3 20 mg Weekly after 5-day QD loading dose, C2D1, GM (CV %), read-out: AUC0-8): 3380 ng·h/mL
Tmax (20 mg, Cohort 3 20 mg Weekly after 5-day QD loading dose, C2D1): 1 h
